# Results published in US20240302356A1, “METHOD FOR DETERMINING A TOXICITY AND/OR GROWTH PROMOTION EFFECT OF A TREATMENT OR COMPOUND” (priority 2021, published 2024).
# Like-named read-outs stand apart in the source and are kept apart here.
# Tests used:
# [1] = system: Arabidopsis thaliana
# [2] = system: A. thaliana leaves; test: A. thaliana leaves cultivated in a hydroponic system, flow cytometry; format: in vivo, Arabidopsis thaliana
# Method: To investigate whether the tipping point can also be determined using another cultivation system, A. thaliana plants were grown in a hydroponic system and exposed to a Cd concentration range after 11 days. Since results are promising for young seedlings, it was also investigated whether the invention works in plants of different ages. Therefore, individual samples of the first and the third leaf were harvested at different time points.
# LEAF 1: FIG. 11 illustrates flow cytometry data of the first A. thaliana leaf exposed to a Cd range (1-10 μM Cd) after 11 days and harvested at different time points (12-21 days). Data are expressed relative to the unexposed condition (0 μM Cd=1.0). A) Endoreplication index (EI); B) Relative ploidy level; C) Relative ratios of consecutive ploidy levels; D) EIDEFENCE; and E) EIGROWTH. One-way ANOVA compared to the unexposed condition: * p<0.05. […] As known from literature, the maximum ploidy level of young leaves is lower than in mature plants. This is confirmed by the different ploidy levels observed, see FIG. 11B: leaf 1 reaches ploidy levels up to 8C after 12 days, 16C after 14 days and the highest ploidy level of 32C was only reached after 18 days. This shift in maximum ploidy level is hypothesized to influence the tipping point. Therefore, at each age, the tipping point is identified. […] This is confirmed by increased 8C/16C ratios, see FIG. 11C.
# LEAF 3: FIG. 12 illustrates flow cytometry data of the third A. thaliana leaf exposed to a Cd range (1-10 μM Cd) after 11 days and harvested at different time points (14-21 days). Data are expressed relative to the unexposed condition (0 μM Cd=1.0). A) Endoreplication index (EI); B) Relative ploidy level; C) Relative ratios of consecutive ploidy levels; D) EIDEFENCE; and E) EIGROWTH. One-way ANOVA compared to the unexposed condition: * p<0.05. […] The different ploidy levels observed confirm the lower maximum ploidy level in young leaves, see FIG. 12B: leaf 3 reaches ploidy levels up to 8C after 14 days, 16C after 18 days and 32C after 21 days. At day 14, leaf 3 was focused on normal cell division as evidenced by the elevated 2C ratio.
# [3] = system: Capsicum annuum; test: Capsicum annuum hypocotyls with roots, flow cytometry (Experiment A1.3); format: in vivo
# Excerpt: (§1) FIGS. 14A and B illustrates from left to right: Average number of nuclei per microliter of carrier fluid; Endoreplication index (EI), for defence (EIDEFENCE) and for growth (EIGROWTH) of the analysed plant samples from different plant systems exposed to the various treatments mentioned in the table. Data are expressed relative to the first listed condition of each experiment (reference). […] In particular, the toxic effect of Cd in T. nicotiana (see Experiment A1.1) was confirmed by the present invention since EIGROWTH decreased and EIDEFENCE increased in the plant seedlings. Mitigation of this Cd-induced growth inhibition by biochar was confirmed (see Experiment A1.2). […] To optimize the growing medium for A. thaliana, different dilutions of MS medium were tested (see Experiment A1.4). […] The toxic effects of ACC (see Experiment A1.8), IAA (see Experiment A1.9) and the osmoticum PEG (simulating drought stress, see Experiment A1.10) on A. thaliana were confirmed by the present invention since EIGROWTH decreased and EIDEFENCE increased.
# [4] = system: D. caryophyllus seedlings; test: D. caryophyllus seedlings in 48-well microtiter plate with 1/4 MS medium, flow cytometry; format: in vivo, Dianthus caryophyllus; conditions: 9 days
# Method: Since results are promising for young seedlings of A. thaliana, it was also investigated whether the invention works in other plant species. To investigate whether the tipping point can also be determined using another plant species, tetraploid D. caryophyllus plants (i.e., basic ploidy level is 4C) were grown in a 48-well microtiter plate with ¼ MS medium and exposed to a Cd concentration range between 0 and 50 μM Cd. FIG. 13 illustrates flow cytometry data of D. caryophyllus seedlings exposed to a Cd range (10-50 μM Cd) and harvested after 9 days. Data are expressed relative to the control condition shown by the horizontal line (1.0). A) Average number of nuclei per microliter of carrier fluid; B) Endoreplication index (EI); C) Relative ploidy level; D) Relative ratios of consecutive ploidy levels; E) EIDEFENCE; and F) EIGROWTH. One-way ANOVA compared to the unexposed condition: * p<0.05.
# [5] = system: Tobacco nicotiana; test: Tobacco nicotiana seedlings, flow cytometry (Experiments A1.1, A1.2); format: in vivo; conditions: plant seedlings, Cd, Experiment A1.1
# Excerpt: as §1
# [6] = toxic treatments, Experiments A1.8-A1.11
# [7] = Cd 10-50 μM, 4C as tipping point
smiles,measurement,setting,value
NC1(C(=O)O)CC1 [ACC],EIDEFENCE,[1]; [6],increased
same,EIGROWTH,[1]; [6],decreased
"[Cd] [Cd, cadmium]",EI,"[2]; leaf 1, 1-10 μM Cd for 3 days or more (14-days-old plants or older)",dose-dependent decrease
same,EIDEFENCE,"[2]; leaf 1, 1-10 μM Cd, FIG. 11D",elevated values
same,EIGROWTH,"[2]; leaf 1, 1-10 μM Cd, FIG. 11E",decreased values
same,EI or ploidy levels,"[2]; leaf 1, one day of exposure to Cd (12-days-old plants)",did not show significant changes
same,EI,"[2]; leaf 3, 1-10 μM Cd, FIG. 12A",dose-dependent decrease
same,EIDEFENCE,"[2]; leaf 3, 1-10 μM Cd, FIG. 12D",elevated values
same,EIGROWTH,"[2]; leaf 3, 1-10 μM Cd, FIG. 12E",decreased values
same,toxic effect,[3],could be confirmed
same,EIDEFENCE,"[1]; 30 μM Cd or more, 10 days",significant and dose-dependent increases
same,number of nuclei per microliter (plant growth),"[1]; Cd concentrations from 30 µM or higher, 10 days",significant decrease
same,EIDEFENCE,[1]; in vivo,dose-dependent increase
same,EIGROWTH,[1]; in vivo,less pronounced dose-dependent decrease
same,growth (concentration of nuclei),[1]; in vivo,dose-dependent growth retardation
same,endoreplication index EI,"[1]; seedlings in MS medium, Cd concentration range 0-50 μM, FIG. 10B",dose-dependent induction in endoreplication
same,EIDEFENCE,[1]; [6],increased
same,EIGROWTH,[1]; [6],decreased
same,EI,[4]; 50 μM Cd,decrease
same,nuclei concentration,[4]; 50 μM Cd,decrease
same,EIDEFENCE,[4]; [7],elevated values
same,EIGROWTH,[4]; [7],decreased values
same,EIDEFENCE,[5],increased
same,EIGROWTH,[5],decreased
C=C1C[C@]23C[C@@]1(O)CC[C@H]2[C@@]12C=C[C@H](O)[C@@](C)(C(=O)O1)[C@H]2[C@@H]3C(=O)O [GA3],growth-stimulating effect by EI indices,[1]; Experiments A1.5-A1.7,EIGROWTH increased and/or EIDEFENCE decreased
same,concentration at which a shift towards toxicity was detected (both EI indices showing an opposite trend),"[1]; increasing concentrations, Experiment A1.7",3 mg I-1
O=C(O)Cc1c[nH]c2ccccc12 [IAA],EIDEFENCE,[1]; [6],increased
same,EIGROWTH,[1]; [6],decreased
